Data from ChEMBL document CHEMBL5346910, “N-sulfonyl peptide-hybrids as a new class of dengue virus protease inhibitors” (Eur J Med Chem, 2023).

Key:
[1] = Cytotoxicity against human HeLa cells by CellTiter-Blue assay; format: toxicity, cell-based
[2] = target: Genome polyprotein (West Nile virus) (UniProt P06935); experiment: Inhibition of West Nile virus NS2B-NS3 protease at 50 uM by biochemical enzymatic assay relative to control
[3] = target: Prothrombin (Homo sapiens) (UniProt P00734); experiment: Inhibition of Thrombin (unknown origin) at 25 uM by biochemical assay relative to control
Trypsin [4] = target: T1, Trypsin (Homo sapiens, UniProt P07477+P07478+P35030); experiment: Inhibition of trypsin (unknown origin) at 50 uM by biochemical assay relative to control; format: protein assay
[5] = target: Genome polyprotein (dengue virus type 2) (UniProt P29990); experiment: Inhibition of DENV-2 NS2B-NS3 protease at 50 uM by biochemical enzymatic assay relative to control
Genome polyprotein [6] = target: T2, Genome polyprotein (dengue virus type 2, UniProt P29990); experiment: Inhibition of DENV-2 NS2B-NS3 protease by biochemical enzymatic assay
Genome polyprotein [7] = target: T2, Genome polyprotein; experiment: Competitive inhibition of DENV-2 NS2B-NS3 protease assessed as inhibition constant by Cheng-Prusoff plot analysis
Genome polyprotein [8] = target: T3, Genome polyprotein (West Nile virus, UniProt P06935); experiment: Inhibition of West Nile virus NS2B-NS3 protease assessed as inhibition constant
T3 sequence (P06935 1371-1501 limits assumed): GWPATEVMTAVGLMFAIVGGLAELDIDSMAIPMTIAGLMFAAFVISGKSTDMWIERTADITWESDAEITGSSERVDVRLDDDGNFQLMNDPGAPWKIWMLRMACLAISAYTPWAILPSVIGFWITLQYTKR
T3 sequence (P06935 1502-2120 limits assumed): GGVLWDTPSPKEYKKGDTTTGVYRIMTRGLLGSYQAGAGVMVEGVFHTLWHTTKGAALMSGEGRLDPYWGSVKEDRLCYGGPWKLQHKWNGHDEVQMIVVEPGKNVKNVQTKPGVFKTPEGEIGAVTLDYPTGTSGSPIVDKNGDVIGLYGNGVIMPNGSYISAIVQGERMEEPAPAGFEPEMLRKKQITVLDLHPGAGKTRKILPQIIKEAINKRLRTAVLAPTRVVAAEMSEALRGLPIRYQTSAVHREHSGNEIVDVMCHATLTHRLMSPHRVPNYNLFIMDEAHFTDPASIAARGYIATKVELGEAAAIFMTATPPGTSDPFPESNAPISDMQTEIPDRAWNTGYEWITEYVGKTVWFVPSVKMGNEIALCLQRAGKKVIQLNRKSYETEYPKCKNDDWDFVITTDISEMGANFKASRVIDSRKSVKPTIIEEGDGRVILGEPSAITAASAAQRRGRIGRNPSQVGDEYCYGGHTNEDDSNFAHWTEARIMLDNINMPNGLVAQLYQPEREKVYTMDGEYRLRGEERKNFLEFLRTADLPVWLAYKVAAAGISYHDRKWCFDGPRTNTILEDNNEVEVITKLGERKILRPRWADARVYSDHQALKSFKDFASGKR

Genome polyprotein [9] = target: T3, Genome polyprotein; experiment: Inhibition of West Nile virus NS2B-NS3 protease by biochemical enzymatic assay
Trypsin [10] = target: T1, Trypsin; experiment: Stability of the compound assessed as trypsin (unknown origin) mediated compound degradation incubated for 60 mins by UV-based HPLC analysis; format: ADME, protein assay; conditions: 1 h
[11] = Stability of the compound assessed as alpha-chymotrypsin (unknown origin) mediated compound degradation incubated for 60 mins by UV-based HPLC analysis; format: ADME; conditions: human, 1 h
[12] = Metabolic stability in rat liver microsomes measured for 120 mins by UV-based HPLC analysis; format: ADME, Microsome; conditions: 2 h
[13] = Metabolic stability in rat liver microsomes assessed as parent compound remaining measured for 120 mins by UV-based HPLC analysis; format: ADME, Microsome; conditions: read-out: Stability

Sequence of Genome polyprotein (West Nile virus) (P06935 whole entry): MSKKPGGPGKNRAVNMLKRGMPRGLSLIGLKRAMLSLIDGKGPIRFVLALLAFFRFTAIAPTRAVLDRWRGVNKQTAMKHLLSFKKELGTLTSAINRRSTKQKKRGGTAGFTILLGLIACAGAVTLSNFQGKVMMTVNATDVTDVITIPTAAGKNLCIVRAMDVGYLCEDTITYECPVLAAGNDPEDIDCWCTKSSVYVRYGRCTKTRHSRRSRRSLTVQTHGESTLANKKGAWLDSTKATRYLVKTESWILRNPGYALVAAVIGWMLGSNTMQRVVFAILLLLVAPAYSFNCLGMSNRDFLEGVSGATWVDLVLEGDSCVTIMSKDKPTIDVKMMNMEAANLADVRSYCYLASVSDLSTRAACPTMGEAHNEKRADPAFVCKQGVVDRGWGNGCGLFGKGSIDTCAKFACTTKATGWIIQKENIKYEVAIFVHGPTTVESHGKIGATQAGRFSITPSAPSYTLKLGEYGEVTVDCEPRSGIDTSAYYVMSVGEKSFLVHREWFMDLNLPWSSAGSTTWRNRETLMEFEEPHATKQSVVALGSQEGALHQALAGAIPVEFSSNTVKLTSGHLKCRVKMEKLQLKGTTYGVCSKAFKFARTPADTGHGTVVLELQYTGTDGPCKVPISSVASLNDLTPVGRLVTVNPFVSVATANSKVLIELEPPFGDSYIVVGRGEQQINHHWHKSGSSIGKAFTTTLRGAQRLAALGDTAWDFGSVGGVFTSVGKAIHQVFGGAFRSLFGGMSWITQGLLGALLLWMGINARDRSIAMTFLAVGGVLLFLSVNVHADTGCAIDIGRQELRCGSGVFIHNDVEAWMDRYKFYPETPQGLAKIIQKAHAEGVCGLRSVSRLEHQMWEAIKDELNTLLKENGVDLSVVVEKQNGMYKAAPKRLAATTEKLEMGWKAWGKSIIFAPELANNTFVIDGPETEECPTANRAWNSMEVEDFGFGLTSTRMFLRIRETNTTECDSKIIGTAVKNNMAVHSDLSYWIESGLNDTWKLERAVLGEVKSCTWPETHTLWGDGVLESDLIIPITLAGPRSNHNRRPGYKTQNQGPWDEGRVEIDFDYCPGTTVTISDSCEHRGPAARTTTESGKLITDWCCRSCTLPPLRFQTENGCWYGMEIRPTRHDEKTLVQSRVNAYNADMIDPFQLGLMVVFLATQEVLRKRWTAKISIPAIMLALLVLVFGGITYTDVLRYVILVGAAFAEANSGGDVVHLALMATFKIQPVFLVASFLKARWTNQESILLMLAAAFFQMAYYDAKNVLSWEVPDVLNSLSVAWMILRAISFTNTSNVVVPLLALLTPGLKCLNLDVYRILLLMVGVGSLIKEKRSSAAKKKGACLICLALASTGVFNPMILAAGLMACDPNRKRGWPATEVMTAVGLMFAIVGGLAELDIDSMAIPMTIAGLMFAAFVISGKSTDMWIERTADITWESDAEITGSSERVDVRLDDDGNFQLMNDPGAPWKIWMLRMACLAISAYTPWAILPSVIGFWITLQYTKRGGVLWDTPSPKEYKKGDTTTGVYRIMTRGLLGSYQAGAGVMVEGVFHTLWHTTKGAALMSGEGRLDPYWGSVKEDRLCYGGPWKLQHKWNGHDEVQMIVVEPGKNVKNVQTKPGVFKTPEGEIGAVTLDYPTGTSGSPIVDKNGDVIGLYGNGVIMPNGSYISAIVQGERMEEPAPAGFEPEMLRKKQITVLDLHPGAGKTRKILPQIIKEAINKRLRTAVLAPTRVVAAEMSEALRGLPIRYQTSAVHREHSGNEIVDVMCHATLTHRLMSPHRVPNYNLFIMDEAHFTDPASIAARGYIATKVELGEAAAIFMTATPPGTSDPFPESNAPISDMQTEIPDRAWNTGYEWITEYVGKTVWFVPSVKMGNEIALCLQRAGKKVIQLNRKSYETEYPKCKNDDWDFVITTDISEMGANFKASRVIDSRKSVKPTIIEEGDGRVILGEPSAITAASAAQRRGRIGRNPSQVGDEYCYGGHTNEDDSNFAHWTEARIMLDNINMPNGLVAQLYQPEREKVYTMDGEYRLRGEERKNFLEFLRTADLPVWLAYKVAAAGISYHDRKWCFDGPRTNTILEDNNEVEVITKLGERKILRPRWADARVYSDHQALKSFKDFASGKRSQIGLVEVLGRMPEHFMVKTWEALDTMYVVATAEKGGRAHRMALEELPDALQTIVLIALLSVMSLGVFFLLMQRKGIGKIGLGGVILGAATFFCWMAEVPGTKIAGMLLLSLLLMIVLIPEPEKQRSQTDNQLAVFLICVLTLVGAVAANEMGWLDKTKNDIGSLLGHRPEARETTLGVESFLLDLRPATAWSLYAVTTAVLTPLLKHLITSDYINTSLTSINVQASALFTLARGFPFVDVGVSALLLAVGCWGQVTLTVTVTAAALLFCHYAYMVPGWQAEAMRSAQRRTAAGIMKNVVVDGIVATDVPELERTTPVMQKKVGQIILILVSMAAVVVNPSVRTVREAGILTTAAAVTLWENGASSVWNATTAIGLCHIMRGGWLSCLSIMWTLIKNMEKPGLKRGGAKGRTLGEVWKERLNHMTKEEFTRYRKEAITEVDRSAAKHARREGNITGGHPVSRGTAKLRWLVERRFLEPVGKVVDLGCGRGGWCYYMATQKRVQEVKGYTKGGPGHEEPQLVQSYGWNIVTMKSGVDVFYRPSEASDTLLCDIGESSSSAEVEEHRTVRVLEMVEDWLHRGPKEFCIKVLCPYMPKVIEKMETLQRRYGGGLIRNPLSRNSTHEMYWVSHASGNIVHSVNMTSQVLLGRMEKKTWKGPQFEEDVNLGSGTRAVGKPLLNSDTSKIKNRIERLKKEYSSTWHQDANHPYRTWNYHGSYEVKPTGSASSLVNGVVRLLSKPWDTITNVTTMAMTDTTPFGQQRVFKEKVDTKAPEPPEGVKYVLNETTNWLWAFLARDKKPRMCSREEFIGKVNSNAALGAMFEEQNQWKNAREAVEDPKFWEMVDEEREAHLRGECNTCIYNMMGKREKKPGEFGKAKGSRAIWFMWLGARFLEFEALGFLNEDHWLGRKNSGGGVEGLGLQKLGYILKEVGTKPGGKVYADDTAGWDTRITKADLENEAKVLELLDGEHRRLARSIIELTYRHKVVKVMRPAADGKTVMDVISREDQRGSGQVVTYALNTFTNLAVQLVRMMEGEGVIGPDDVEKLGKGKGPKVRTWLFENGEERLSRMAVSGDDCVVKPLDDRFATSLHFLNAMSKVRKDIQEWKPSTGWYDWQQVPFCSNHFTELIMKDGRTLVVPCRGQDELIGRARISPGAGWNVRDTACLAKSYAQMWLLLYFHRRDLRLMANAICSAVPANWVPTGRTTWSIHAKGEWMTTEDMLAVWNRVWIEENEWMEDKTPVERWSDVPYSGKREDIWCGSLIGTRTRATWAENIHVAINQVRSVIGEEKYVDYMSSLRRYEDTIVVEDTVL

SMILES	CC50 [1] [µM]	inhibition [2] [%]	inhibition [3] [%]	inhibition (Trypsin [4]) [%]	inhibition [5] [%]	IC50 (Genome polyprotein [6]) [µM]	Ki (Genome polyprotein [7]) [µM]	Ki (Genome polyprotein [8]) [µM]	IC50 (Genome polyprotein [9]) [µM]	Stability (Trypsin [10])	Stability [11]	Stability [12]	remaining at 2 h [13] [%]
CN(C)c1cccc2c(S(=O)(=O)N[C@@H](CCCNC(=N)N)C(=O)N[C@@H](CCCCN)C(=O)N[C@@H](C(N)=O)c3ccccc3)cccc12	> 50	< 10	2.3	10.7	35.3	–	–	–	–	–	–	–	–
CN(C)C(=O)COC(=O)Cc1ccc(OC(=O)c2ccc(NC(=N)N)cc2)cc1	–	–	99	–	–	–	–	–	–	–	–	–	–
CN([C@@H](Cc1ccc(C(=N)N)cc1)C(=O)N[C@@H](CCCCN)C(=O)N[C@@H](C(N)=O)c1ccc(OCc2ccc(Cl)c(Cl)c2)cc1)S(=O)(=O)c1ccccc1	45.3	84.8	15.8	11	98.6	0.089	0.078	5.1	12.1	–	–	–	–
Cc1ccc(S(=O)(=O)N(C)[C@@H](Cc2ccc(NC(=N)N)cc2)C(=O)N[C@@H](CCCCN)C(=O)N[C@@H](C(N)=O)c2ccccc2)cc1	> 50	< 10	< 10	19.9	95	1.63	–	–	–	–	–	–	–
CN([C@@H](Cc1ccc(C(=N)N)cc1)C(=O)N[C@@H](CCCCN)C(=O)N[C@@H](C(N)=O)c1ccc(OCc2ccc(C(F)(F)F)cc2)cc1)S(=O)(=O)c1ccccc1	75.3	80.4	15.8	18.3	99.2	0.12	–	–	13.9	–	–	–	–
CC(C)c1cc(C(C)C)c(S(=O)(=O)N[C@@H](CCCNC(=N)N)C(=O)N[C@@H](CCCCN)C(=O)N[C@@H](C(N)=O)c2ccccc2)c(C(C)C)c1	> 50	< 10	< 10	< 10	20.2	–	–	–	–	–	–	–	–
CN([C@@H](Cc1cccc(NC(=N)N)c1)C(=O)N[C@@H](CCCCN)C(=O)N[C@@H](C(N)=O)c1ccccc1)S(=O)(=O)c1ccccc1	–	10.1	30.2	< 10	78.6	13.2	–	–	–	–	–	–	–
N=C(N)Nc1ccc(C[C@H](NS(=O)(=O)c2ccccc2)C(=O)N[C@@H](CCCCN)C(=O)N[C@@H](C(N)=O)c2ccccc2)cc1	> 50	< 10	< 10	< 10	52.6	–	–	–	–	Stable	Stable	Stable	–
Cc1ccc(S(=O)(=O)N(C)[C@@H](CCCNC(=N)N)C(=O)N[C@@H](CCCCN)C(=O)N[C@@H](C(N)=O)c2ccccc2)cc1	> 50	< 10	< 10	20.3	75.8	17.9	–	–	–	–	–	–	–
CN([C@@H](CCCNC(=N)N)C(=O)N[C@@H](CCCCN)C(=O)N[C@@H](C(N)=O)c1ccccc1)S(=O)(=O)c1ccccc1	> 50	< 10	< 10	< 10	80.6	11	–	–	–	Stable	Stable	Stable	–
Cc1ccc(S(=O)(=O)N[C@@H](CCCNC(=N)N)C(=O)N[C@@H](CCCCN)C(=O)N[C@@H](C(N)=O)c2ccccc2)cc1	> 50	17.7	< 10	21.6	50.5	–	–	–	–	–	–	–	–
CN([C@@H](CCCNC(=N)N)C(=O)N[C@@H](CCCCN)C(=O)N[C@H](C(N)=O)c1ccccc1)S(=O)(=O)c1ccccc1	> 50	< 10	< 10	< 10	75.3	17.6	–	–	–	–	–	–	–
N=C(N)NCCC[C@H](NC(=O)c1ccccc1)C(=O)N[C@@H](CCCCN)C(=O)N[C@@H](C(N)=O)c1ccc(OCc2ccccc2)cc1	> 50	–	< 10	–	–	–	–	–	–	–	–	–	–
CN([C@@H](Cc1ccc(C(=N)N)cc1)C(=O)N[C@@H](CCCCN)C(=O)N[C@@H](C(N)=O)c1ccc(O)cc1)S(=O)(=O)c1ccccc1	–	33.7	30.3	14.7	101	0.44	–	–	–	–	–	–	–
N=C(N)NCCC[C@H](NS(=O)(=O)c1ccc([N+](=O)[O-])cc1)C(=O)N[C@@H](CCCCN)C(=O)N[C@@H](C(N)=O)c1ccccc1	> 50	18.4	< 10	30.6	24.7	–	–	–	–	–	–	–	–
N=C(N)NCCC[C@H](NS(=O)(=O)c1ccccc1)C(=O)N[C@@H](CCCCN)C(=O)N[C@@H](C(N)=O)c1ccccc1	> 50	22.3	< 10	< 10	44.3	–	–	–	–	–	–	Stable	–
Cc1ccc(S(=O)(=O)N(C)[C@@H](Cc2cccc(N)c2)C(=O)N[C@@H](CCCCN)C(=O)N[C@@H](C(N)=O)c2ccccc2)cc1	–	< 10	< 10	< 10	23.2	–	–	–	–	–	–	–	–
CN([C@@H](Cc1ccc(/C(N)=N/O)cc1)C(=O)N[C@@H](CCCCN)C(=O)N[C@@H](C(N)=O)c1ccccc1)S(=O)(=O)c1ccccc1	> 50	< 10	< 10	< 10	58.5	–	–	–	–	–	–	–	–
CC[C@H](NC(=O)[C@H](Cc1cccc(NC(=N)N)c1)N(C)S(=O)(=O)c1ccc(C)cc1)C(=O)N[C@@H](C(N)=O)c1ccccc1	–	< 10	18.1	< 10	74.3	18.9	–	–	–	–	–	–	–
CN([C@@H](Cc1ccc(C(=N)N)cc1)C(=O)N[C@@H](CCCCN)C(=O)N[C@H](C(N)=O)c1ccc(OCc2ccccc2)cc1)S(=O)(=O)c1ccccc1	–	20.2	23.4	34.3	102	0.2	–	–	–	–	–	–	–
CN([C@@H](CCCNC(=N)N)C(=O)N[C@@H](CCCCN)C(=O)N[C@@H](C(N)=O)c1ccccc1)S(=O)(=O)c1ccc(Cl)cc1	–	< 10	< 10	13	75.1	19.4	–	–	–	–	–	–	–
CN([C@@H](Cc1ccc(C(=N)N)cc1)C(=O)N[C@@H](CCCCN)C(=O)N[C@@H](C(N)=O)c1ccccc1)S(=O)(=O)c1ccccc1	> 200	48.7	19.6	19.2	98.9	0.21	–	–	–	Stable	Stable	–	100
Cc1cc(C)c(S(=O)(=O)N[C@@H](CCCNC(=N)N)C(=O)N[C@@H](CCCCN)C(=O)N[C@@H](C(N)=O)c2ccccc2)c(C)c1	> 50	< 10	< 10	< 10	35.9	–	–	–	–	–	–	–	–
CN([C@@H](Cc1ccc(C(=N)N)cc1)C(=O)N[C@@H](CCCCN)C(=O)N[C@@H](C(N)=O)c1ccc(OCc2ccccc2)cc1)S(=O)(=O)c1ccccc1	> 200	68.9	22.9	22	99	0.11	0.092	–	22.2	–	–	–	–
N=C(N)NCCC[C@H](NS(=O)(=O)C1CCCCC1)C(=O)N[C@@H](CCCCN)C(=O)N[C@@H](C(N)=O)c1ccccc1	> 50	< 10	< 10	17.4	65.2	–	–	–	–	–	–	–	–
CN([C@@H](Cc1ccc(NC(=N)N)cc1)C(=O)N[C@@H](CCCCN)C(=O)N[C@@H](C(N)=O)c1ccccc1)S(=O)(=O)c1ccccc1	> 50	14.9	< 10	17.1	97.6	2.72	–	–	–	Stable	Stable	Stable	–
N=C(N)NCCC[C@H](NS(=O)(=O)c1ccc(Cl)cc1)C(=O)N[C@@H](CCCCN)C(=O)N[C@@H](C(N)=O)c1ccccc1	> 50	15.5	< 10	< 10	44.5	–	–	–	–	–	–	–	–
CN([C@@H](Cc1cccc(N)c1)C(=O)N[C@@H](CCCCN)C(=O)N[C@@H](C(N)=O)c1ccccc1)S(=O)(=O)c1ccccc1	–	< 10	< 10	< 10	20.4	–	–	–	–	–	–	–	–
